The nature of data set [1]: logP by HPLC on reversed-phase column (C 18), EEC Directive 79/831 Annex V.A8. It counts as physicochemical. The note with it: reversed-phase HPLC column (C 18), C 18, 40° C., 0.1% aqueous formic acid and acetonitrile, read-out: logPa. The procedure: Temperature: 40° C.; Mobile phases: 0.1% aqueous formic acid and acetonitrile; linear gradient from 10% acetonitrile to 90% acetonitrile.
Calibration was carried out using unbranched alkan-2-ones (comprising 3 to 16 carbon atoms) with known logP values (determination of the logP values by the retention times using linear interpolation between two successive alkanones).

Data set [2] deals with Puccinia recondita f. Sp. tritici. In words: In vivo preventive test on Puccinia recondita f. Sp. tritici (wheat brown rust). The note with it: topical, 240 h, 1000 ppm of active ingredient, evaluated 10 days after inoculation, read-out: efficacy. How it is done:
In Vivo Preventive Test on Puccinia recondita f. Sp. tritici (Wheat Brown Rust)
(§1) To produce a suitable preparation of active compound, 1 part by weight of active compound is mixed with the stated amounts of solvent and emulsifier, and the concentrate is diluted with water to the desired concentration.
To test for preventive activity, young plants are […]. After the spray coating has dried on, the plants are sprayed with the preparation of active compound at the stated rate of application. The plants remain for 24 hours in an incubation cabinet at 20° C. and a relative atmospheric humidity of 100%.
The plants are placed in a greenhouse at a temperature of approximately 20° C. and a relative atmospheric humidity of approximately 80% to promote the development of rust pustules.
The test is evaluated 10 days after the inoculation. 0% means an efficacy which corresponds to that of the control, while an efficacy of 100% means that no disease is observed.

For data set [3], the system named is Erysiphe graminis f.sp. hordei. In words: In vivo preventive test on Erysiphe graminis (powdery mildew on barley). The note with it: Blumeria graminis, topical, 168 h, 1000 ppm of active ingredient, evaluated 7 days after inoculation, read-out: efficacy. How it is done: In Vivo Preventive Test on Erysiphe gramini (Powdery Mildew on Barley)
To produce a suitable preparation of active compound, 1 part by weight of active compound or active compound combination is mixed with the stated amounts of solvent and emulsifier, and the concentrate is diluted with water to the desired concentration.
To test for preventive activity, young plants are sprayed with the preparation of active compound or active compound combination at the stated rate of application.
After the spray coating has dried on, the plants are dusted with spores of Erysiphe graminis f.sp. hordei
The plants are placed in a greenhouse at a temperature of approximately 20° C. and a relative atmospheric humidity of approximately 80% to promote the development of mildew pustules.
(§2) The test is evaluated 7 days after the inoculation. 0% means an efficacy which corresponds to that of the control, while an efficacy of 100% means that no disease is observed.

Another data set relates to Alternaria solani. In words: In vivo protective test on Alternaria solani (leaf spot of tomato). The note with it: topical, 168 h, 500 ppm of active ingredient, evaluated 7 days after inoculation, read-out: efficacy. The procedure: In Vivo Protective Test on Alternaria solani (Leaf Spot of Tomato)
as §1
To test for protective activity, young plants are sprayed with the preparation of active compound at the stated rate of application. After the spray coating has dried on, the plants are inoculated with an aqueous spore suspension of Alternatia solani. The plants remain for one day in an incubation cabinet at approximately 20° C. and a relative atmospheric humidity of 100%. Then the plants are placed in an incubation cabinet at approximately 20° C. and a relative atmospheric humidity of 96%.
The test is evaluated 7 days after the inoculation. 0% means an efficacy which corresponds to that of the control while an efficacy of 100% means that no disease is observed.

For a further data set, the system named is Podosphaera leucotricha. In words: In vivo protective test on Podosphaera leucotricha (apples). The note with it: topical, 240 h, 100 ppm of active ingredient, evaluated 10 days after inoculation, read-out: efficacy. The text has this:
In Vivo Protective Test on Podosphaera leucotricha (Apples) [table] […] To test for protective activity, young plants are sprayed with the preparation of active compound at the stated rate of application. After the spray coating has dried on, the plants are inoculated with an aqueous spore suspension of the causal agent of apple mildew (Podosphaera leucotricha).

The subject of another data set is Sphaerotheca fuliginea. In words: In vivo protective test on Sphaerotheca fuliginea (cucumbers). The note with it: Podosphaera fuliginea, topical, 168 h, 100 ppm of active ingredient, evaluated 7 days after inoculation, read-out: efficacy. How it is done: In Vivo Protective Test on Sahaerotheca fuliginea (Cucumbers)
as §1
To test for protect activity, young plants are sprayed with the preparation of active compound at the stated rate of application. After the spray coating has dried on, the plants are inoculated with an aqueous spore suspension of Sphaerotheca fuliginea. The plants are then placed in a greenhouse at approximately 23° C. and a relative atmospheric humidity of approximately 70%.
as §2

In another data set the test system is Aedes aegypti larvae. As to the kind of experiment: In vivo protective test on Aedes aegypti (AEDSAE U). The procedure:
In Vivo Protective Test on Aedes Aegypti (AEDSAE U)
To produce a suitable preparation of the active compound, the active compound is mixed with the stated amount of solvent, and the concentrate is diluted with staining water to the desired concentration.
Aedes aegypti larvae are pipetted with a preparation of active ingredient of the desired concentration.
After the specified period of time, mortality in % is determined. 100% means that all larvae have been killed, a 0% means that none of the larvae have been killed.

The subject of data set [4] is eggs of cotton bollworm (Heliothis virescens). In words: In vivo protective test on Heliothis virescens (HELIVI U). The note with it: soybean leaf sections infested with Heliothis virescens eggs. The text has this: In Vivo Protective Test on Heliothis virescens (HELIVI U)
To produce a suitable preparation of the active compound, 1 part by weight of active compound is mixed with the stated amount of solvent and emulsifier, and the concentrate is dilutes with emulsifier-containing water to the desired concentration.
Soybean (Glycine max.) leaf sections are sprayed with a preparation of the active ingredient of the desired concentration. Once dry, the leaf sections are infested with eggs of cotton bollworm (Heliotis virescens).
After the specified period of time, mortality in % is determined. 100% means that all eggs have been killed and 0% means that none of the eggs have been killed.

The subject of data set [5] is mosquito larvae (Aedes aegypti). As to the kind of experiment: In vivo protective test on Aedes aegypti (AEDSAE MO). The note with it: Aedes aegypti third larvae. The procedure:
In Vivo Protective Test on Aedes aegypti (AEDSAE MO)
To produce a suitable preparation of active compound, 1 part by weight of active compound is mixed with the stated amount of solvent, and the concentrate is diluted with water to the desired concentration.
10 to 20 third mosquito larvae (Aedes aegypti) are added to the well and incubated.
After the specified period of time, mortality in % is determined. 100% means that all of the larvae have been killed; 0% means that none of the larvae have been killed.

The text below walks through data of patent US8183296B2, “Pesticide phenyloxy substituted phenylamidine derivatives” (Bayer Cropscience AG, priority 2005, dated 2012).

For the compound `CCN(C)/C=N/c1cc(C)c(Oc2ccc(Cl)c(C(C)C)c2)cc1C` [Example 3], the chromatographic logP in [1] was 2.75. Moreover, the pest or weed control at 1000 ppm in data set [2] and in [3] was at least 70% throughout. The pest or weed control at 500 ppm in the data set on Alternaria solani was at least 70%. For the same compound, the pest or weed control at 100 ppm in the data set with Podosphaera leucotricha and in the data set on Sphaerotheca fuliginea was at least 70% throughout. The “activity (mortality of larvae)” value with Aedes aegypti larvae is given as “good activity”.
`Cc1cc(Oc2ccc(Br)c(C(C)C)c2)c(C)cc1/N=C/N(C)C(C)C` [Example 18]: the chromatographic logP in data set [1] is 3.34. For the same compound, the pest or weed control at 1000 ppm in data set [2] and in data set [3] was at least 70% in each case. Also, the pest or weed control at 500 ppm in the data set with Alternaria solani is at least 70%. The pest or weed control at 100 ppm with Podosphaera leucotricha and in the data set on Sphaerotheca fuliginea was at least 70% throughout. Moreover, in data set [4], the “activity (mortality of eggs)” value is on record as “good activity”. Further, the “activity (mortality of larvae)” value in [5] was “good activity”.
